# In publication PMC6946167, “Characterization of Aspergillus nidulans TRAPPs uncovers unprecedented similarities between fungi and metazoans and reveals the modular assembly of TRAPPII” (PLoS Genetics, 2019):
# How the values were obtained:
# RAB1 (RabO) = target: T1, RAB1 (RabO) (Aspergillus nidulans, UniProt C8V3Z5); assay: GDP/mant-GDP exchange, Trp-to-mant FRET ([…] nm), exponential fit; format: binding; conditions: 5 uM GDP-loaded GST-RAB1, 50 uM mant-GDP, 10 mM MgCl2, 10 mM KCl, 2 mM DTT, 50 mM Tris-HCl pH 7.5, 30 C; no GEF
# T1 construct: gene ANIA_04281; GST fusion, expressed in E. coli, purified on glutathione-Sepharose 4B, GDP-loaded; GST not reported cut
# T1 sequence (C8V3Z5 entry or part of it): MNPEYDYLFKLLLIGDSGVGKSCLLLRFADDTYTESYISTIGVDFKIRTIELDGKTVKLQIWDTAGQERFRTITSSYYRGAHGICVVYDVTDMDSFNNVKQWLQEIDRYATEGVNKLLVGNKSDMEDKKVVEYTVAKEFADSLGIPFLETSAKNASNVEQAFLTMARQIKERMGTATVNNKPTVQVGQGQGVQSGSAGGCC
# [1] = target: TRAPPII from tca17Δ cells (Aspergillus nidulans); assay: negative-stain electron microscopy; Trs120-S-purified complexes eluted from S-agarose with S-peptide, concentrated, stained with 2% uranyl acetate; single particle 2D classification
Molecule,koff (RAB1 (RabO)),percent of particles that are TRAPPII dimers [1]
Nc1nc2c(ncn2[C@@H]2O[C@H](COP(=O)(O)OP(=O)(O)O)[C@@H](O)[C@H]2O)c(=O)[nH]1 [GDP],Time courses of mant-GDP exchange for GDP were used to calculate the observed koff of GDP,–
TRAPPII from tca17Δ cells (complex),–,12%
